According to the NIST ThermoML archive (doi:10.1016/j.fluid.2017.04.014):

Conditions: Liquid, Closed cell (Static) method

CCO [ethanol]
Conditions	vapor or sublimation pressure [kPa]
278.6 K	2.18
283.5 K	3.11
293.4 K	5.95
298.3 K	7.96
303.2 K	10.52
308.1 K	13.84
313.1 K	17.87
318.1 K	22.98
322.9 K	29.05
327.9 K	36.73
332.8 K	46.15

COC(C)(C)C [2-methoxy-2-methylpropane]
Conditions	vapor or sublimation pressure [kPa]
283.6 K	17.79
288.6 K	22.07
293.5 K	27.43
298.4 K	33.72
303.3 K	41.1
308.2 K	49.8
313.1 K	59.9
318.1 K	71.61
323 K	85.01
327.9 K	100.34
332.9 K	117.7
337.8 K	137.39

Cc1ccccc1 [toluene]
Conditions	vapor or sublimation pressure [kPa]
278.7 K	1.26
283.6 K	1.7
288.5 K	2.26
293.4 K	2.97
298.3 K	3.89
303.2 K	5
308.1 K	6.27
313.1 K	7.99
318 K	9.95
323 K	12.26
327.9 K	15
332.8 K	18.26
337.8 K	22.04

CC(C)CC(C)(C)C [2,2,4-trimethylpentane]
Conditions	vapor or sublimation pressure [kPa]
283.6 K	3.05
288.4 K	3.99
293.4 K	5.18
298.3 K	6.63
298.4 K	6.62
303.3 K	8.39
308.2 K	10.53
313.1 K	12.97
318.1 K	15.96
323 K	19.54
328 K	23.81
332.8 K	28.66
